Earlier results, collected in patent US20210220347A1 (priority 2015, published 2021).

Details: in vivo

In the case of `CN1CC[C@]23c4c5ccc(O)c4O[C@H]2[C@@H](O)C=C[C@H]3[C@H]1C5` [morphine], the “Respiratory depression dose response” value is given as “linear and dose proportional”.
